Reference: patent US20260365647A1, “AKT1 MODULATORS” (Alterome Therapeutics, Inc., priority 2022, published 2026)

What follows are molecules tested against T1, AKT1-E17K (Homo sapiens, UniProt P31749, E17K) (assay: NanoBRET Target Engagement (TE) Assay).
T1 construct: host or cells: HEK-293 (ATCC CRL-1573)
T1 sequence (P31749 whole entry E17K): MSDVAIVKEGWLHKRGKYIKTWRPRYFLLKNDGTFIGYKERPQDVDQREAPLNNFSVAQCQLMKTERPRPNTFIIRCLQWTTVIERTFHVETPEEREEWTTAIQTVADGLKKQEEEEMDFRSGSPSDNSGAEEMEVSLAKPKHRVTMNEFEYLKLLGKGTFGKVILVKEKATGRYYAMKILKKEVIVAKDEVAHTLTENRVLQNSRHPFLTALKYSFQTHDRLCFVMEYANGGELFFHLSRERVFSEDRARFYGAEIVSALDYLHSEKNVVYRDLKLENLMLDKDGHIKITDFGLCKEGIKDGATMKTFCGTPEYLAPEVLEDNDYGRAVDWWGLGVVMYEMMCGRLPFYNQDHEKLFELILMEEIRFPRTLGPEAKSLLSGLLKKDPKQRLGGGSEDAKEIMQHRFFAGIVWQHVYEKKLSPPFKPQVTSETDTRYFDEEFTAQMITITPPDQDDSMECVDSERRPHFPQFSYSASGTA
Assay type: cell-based
From the text: The NanoBRET™ Target Engagement (TE) Intracellular Kinase Assays are based on the NanoBRET™ System (Promega Corporation), an energy transfer technique designed to measure molecular proximity in living cells. The NanoBRET™ TE Assays measure the apparent affinity of test compounds by competitive displacement of the NanoBRET™ tracer compound, which is a cell permeable molecule engineered to be reversibly bound to a NanoLuc® luciferase-kinase fusion expressed in cells. For compound screening, when a test compound binds to the selected kinase, the BRET signal is attenuated. […] All cells were evaluated for viability prior to transfection and optimization of the transfection was done prior to experimentation. […] Following transfection, cells were washed and resuspended in Opti-MEM. NanoBRET assays were performed in white, 384-well plates (Corning) at a density of […]. All example compounds were prepared as concentrated stock solutions in DMSO (Sigma-Aldrich). Compounds are dissolved in DMSO to make 10 mM stock solution. […] A Labcyte ECHO 550 compound dispenser was used to facilitate compound transfer directly to cells. Cells were equilibrated for 2 hr with energy transfer probes and example compound prior to BRET measurements. […] For target engagement analysis, the energy transfer probes were added to the cells at concentrations optimized for the target in question (AKT E17K). Following compound incubation, NanoBRET NanoGlo Substrate (Promega Cat #N157D) and Extracellular Nanoluc Inhibitor (Promega Cat #N235C) was added according to the manufacturer's recommended protocol, and luminescence was measured on Envision Reader (Perkin Elmer) Multimode Luminometer equipped with 450 nmBPfilter (donor) and 600 nmLPfilter (acceptor), using 0.5 s integration time. Milli-BRET units (mBU) are calculated by multiplying the raw BRET values by 1000. Apparent tracer affinity values (EC50) were determined using the sigmoidal dose-response (variable slope). Competitive displacement data were then plotted and data were fit to determine the EC50 value for each example compound.
Molecule `Nc1ncccc1-c1nc2cc(-c3ccccc3)cnc2n1-c1ccc(CN2CCN(c3ccc(C=O)c(O)c3)CC2)cc1` [Example 54, 4-(4-(4-(2-(2-Aminopyridin-3-yl)-6-phenyl-3H-imidazo[4,5-b]pyridin-3-yl)benzyl)piperazin-1-yl)-2-hydroxybenzaldehyde] has an IC50 of 0.06 to 0.6 µM.
`Nc1ncccc1-c1nc2ccc(-c3ccccc3)nc2n1-c1ccc(CN2CCN(c3ccc(C=O)c(O)c3F)CC2)cc1` [Example 26, 4-(4-(4-(2-(2-Aminopyridin-3-yl)-5-phenyl-3H-imidazo[4,5-b]pyridin-3-yl)benzyl)piperazin-1-yl)-3-fluoro-2-hydroxybenzaldehyde] gave an IC50 of 0.015 to 0.06 µM.
For `Nc1ncccc1-c1nc2ccc(-c3ccccc3)nc2n1-c1ccc(CN2C[C@H]3C[C@@H]2CN3C(=O)c2ccc(C=O)c(O)c2)cc1` [Example 56, 4-((1R,4R)-5-(4-(2-(2-Aminopyridin-3-yl)-5-phenyl-3H-imidazo[4,5-b]pyridin-3-yl)benzyl)-2,5-diazabicyclo[2.2.1]heptane-2-carbonyl)-2-hydroxybenzaldehyde], the IC50 was 0.06 to 0.6 µM.
`Nc1ncccc1-c1nc2ccc(-c3ccccc3)nc2n1-c1ccc(CN2CCC3(CCN(C(=O)c4ccc(O)c(C=O)c4)C3)C2)cc1` (centres unmarked) [Example 80, 5-(7-(4-(2-(2-Aminopyridin-3-yl)-5-phenyl-3H-imidazo[4,5-b]pyridin-3-yl)benzyl)-2,7-diazaspiro[4.4]nonane-2-carbonyl)-2-hydroxybenzaldehyde] showed an IC50 of 0.06 to 0.6 µM.
For `Nc1ncccc1-c1nc2ccc(-c3ccccc3)nc2n1-c1ccc(CN2C[C@@H]3CN(C(=O)c4ccc(C=O)c(O)c4)C[C@@H]3C2)cc1` [Example 132, 4-((3aR,6aS)-5-(4-(2-(2-Aminopyridin-3-yl)-5-phenyl-3H-imidazo[4,5-b]pyridin-3-yl)benzyl)octahydropyrrolo[3,4-c]pyrrole-2-carbonyl)-2-hydroxybenzaldehyde], the IC50 was 0.06 to 0.6 µM.
For `Nc1ncccc1-c1nc2ccc(-c3ccccc3)nc2n1-c1ccc(CN2CC3CCC(C2)N3C(=O)c2ccc(O)c(C=O)c2)cc1` [Example 110, 5-(3-(4-(2-(2-Aminopyridin-3-yl)-5-phenyl-3H-imidazo[4,5-b]pyridin-3-yl)benzyl)-3,8-diazabicyclo[3.2.1]octane-8-carbonyl)-2-hydroxybenzaldehyde], the IC50 was greater than 0.6 µM.
For `Nc1ncccc1-c1nc2ccc(-c3ccccc3)nc2n1-c1ccc(CN2CCC3(CC2)CCN(C(=O)c2ccc(C=O)c(O)c2)CC3)cc1` [Example 152, 4-(9-(4-(2-(2-aminopyridin-3-yl)-5-phenyl-3H-imidazo[4,5-b]pyridin-3-yl)benzyl)-3,9-diazaspiro[5.5]undecane-3-carbonyl)-2-hydroxybenzaldehyde], the IC50 was 0.06 to 0.6 µM.
With `Nc1ncccc1-c1nc2ccc(C3=CCCCC3)nc2n1-c1ccc(CN2CCN(C(=O)c3ccc(C=O)c(O)c3)CC2)cc1` [Example 151, 4-(4-(4-(2-(2-aminopyridin-3-yl)-5-(cyclohex-1-en-1-yl)-3H-imidazo[4,5-b]pyridin-3-yl)benzyl)piperazine-1-carbonyl)-2-hydroxybenzaldehyde] the IC50 was greater than 0.6 µM.
In the case of `Nc1ncccc1-c1nc2ccc(-c3ccc(F)cc3)nc2n1-c1ccc(CN2CCN(C(=O)c3ccc(C=O)c(O)c3)CC2)cc1` [Example 144, 4-(4-(4-(2-(2-Aminopyridin-3-yl)-5-(4-fluorophenyl)-3H-imidazo[4,5-b]pyridin-3-yl)benzyl)piperazine-1-carbonyl)-2-hydroxybenzaldehyde], the IC50 is reported as 0.06 to 0.6 µM.
For `Nc1ncccc1-c1nc2ccc(-c3ccccc3)nc2n1-c1ccc(CN2CC3CCC2CN3C(=O)c2ccc(O)c(C=O)c2)cc1` (centres unmarked) [Example 126, 5-(5-(4-(2-(2-Aminopyridin-3-yl)-5-phenyl-3H-imidazo[4,5-b]pyridin-3-yl)benzyl)-2,5-diazabicyclo[2.2.2]octane-2-carbonyl)-2-hydroxybenzaldehyde], the IC50 was 0.06 to 0.6 µM.
Work on `Nc1ncccc1-c1nc2ccc(-c3ccccc3)nc2n1-c1ccc(CN2CCC3(CCCN(c4ccc(C=O)c(O)c4)C3)C2)cc1` (centres unmarked) [Example 88, 4-(2-(4-(2-(2-Aminopyridin-3-yl)-5-phenyl-3H-imidazo[4,5-b]pyridin-3-yl)benzyl)-2,7-diazaspiro[4.5]decan-7-yl)-2-hydroxybenzaldehyde] yielded an IC50 of 0.06 to 0.6 µM.
Molecule `Nc1ncccc1-c1nc2ccc(-c3ccccc3)nc2n1-c1ccc(CN2CCC3(CCN(C(=O)c4ccc(C=O)c(O)c4)C3)C2)cc1` (centres unmarked) [Example 81, 4-(7-(4-(2-(2-Aminopyridin-3-yl)-5-phenyl-3H-imidazo[4,5-b]pyridin-3-yl)benzyl)-2,7-diazaspiro[4.4]nonane-2-carbonyl)-2-hydroxybenzaldehyde] has an IC50 of 0.06 to 0.6 µM.
In the case of `Nc1ncccc1-c1nc2ccc(-c3ccccc3)nc2n1-c1ccc(CN2CCC(NC(=O)c3ccc(C=O)c(O)c3)CC2)cc1` [Example 8, N-(1-(4-(2-(2-Aminopyridin-3-yl)-5-phenyl-3H-imidazo[4,5-b]pyridin-3-yl)benzyl)piperidin-4-yl)-4-formyl-3-hydroxybenzamide], the IC50 is reported as 0.06 to 0.6 µM.
Work on `Nc1ncccc1-c1nc2ccc(-c3ccccc3)nc2n1-c1ccc(CN2CCC[C@@H](NC(=O)c3ccc(O)c(C=O)c3)C2)cc1` [Example 58, (R)—N-(1-(4-(2-(2-Aminopyridin-3-yl)-5-phenyl-3H-imidazo[4,5-b]pyridin-3-yl)benzyl)piperidin-3-yl)-3-formyl-4-hydroxybenzamide] yielded an IC50 of 0.015 to 0.06 µM.
Work on `Nc1ncccc1-c1nc2ccc(-c3ccccc3)nc2n1-c1ccc(CN2CCC3(C2)CN(C(=O)c2ccc(C=O)c(O)c2)C3)cc1` [Example 153, 4-(6-(4-(2-(2-aminopyridin-3-yl)-5-phenyl-3H-imidazo[4,5-b]pyridin-3-yl)benzyl)-2,6-diazaspiro[3.4]octane-2-carbonyl)-2-hydroxybenzaldehyde] yielded an IC50 of 0.06 to 0.6 µM.
With `Nc1ncccc1-c1nc2ccc(-c3ccccc3)nc2n1-c1ccc(CN2C[C@@H]3CN(c4ccc(O)c(C=O)c4)C[C@@H]3C2)cc1` [Example 134, 5-((3aR,6aS)-5-(4-(2-(2-Aminopyridin-3-yl)-5-phenyl-3H-imidazo[4,5-b]pyridin-3-yl)benzyl)hexahydropyrrolo[3,4-c]pyrrol-2(1H)-yl)-2-hydroxybenzaldehyde] the IC50 was 0.06 to 0.6 µM.
`Nc1ncccc1-c1nc2ccc(-c3cccc(=O)[nH]3)nc2n1-c1ccc(CN2CCN(C(=O)c3ccc(C=O)c(O)c3)CC2)cc1` [Example 46, 4-(4-(4-(2-(2-Aminopyridin-3-yl)-5-(6-oxo-1,6-dihydropyridin-2-yl)-3H-imidazo[4,5-b]pyridin-3-yl)benzyl)piperazine-1-carbonyl)-2-hydroxybenzaldehyde] was tested, and the IC50 was greater than 0.6 µM.
`Nc1ncccc1-c1nc2ccc(-c3ccccc3)nc2n1-c1ccc(CN2CC3(CCN(C(=O)c4ccc(O)c(C=O)c4)CC3)C2)cc1` [Example 95, 5-(2-(4-(2-(2-Aminopyridin-3-yl)-5-phenyl-3H-imidazo[4,5-b]pyridin-3-yl)benzyl)-2,7-diazaspiro[3.5]nonane-7-carbonyl)-2-hydroxybenzaldehyde] gave an IC50 of 0.06 to 0.6 µM.
`Nc1ncccc1-c1nc2ccc(-c3ccccc3)nc2n1-c1ccc(CN2C[C@@H]3C[C@H]2CN3C(=O)c2ccc(C=O)c(O)c2)cc1` [Example 122, 4-((1S,4S)-5-(4-(2-(2-Aminopyridin-3-yl)-5-phenyl-3H-imidazo[4,5-b]pyridin-3-yl)benzyl)-2,5-diazabicyclo[2.2.1]heptane-2-carbonyl)-2-hydroxybenzaldehyde] showed an IC50 of 0.015 to 0.06 µM.
Molecule `Nc1ncccc1-c1nc2ccc(-c3ccccc3)nc2n1-c1ccc(CN2C[C@H]3C[C@@H]2CN3c2ccc(C=O)c(O)c2)cc1` [Example 124, 4-((1R,4R)-5-(4-(2-(2-Aminopyridin-3-yl)-5-phenyl-3H-imidazo[4,5-b]pyridin-3-yl)benzyl)-2,5-diazabicyclo[2.2.1]heptan-2-yl)-2-hydroxybenzaldehyde] has an IC50 of 0.015 to 0.06 µM.
For `Nc1ncccc1-c1nc2ccc(-c3ccccc3)nc2n1-c1ccc(CN2CCC(Oc3cccc(O)c3C=O)CC2)cc1` [Example 128, 2-((1-(4-(2-(2-Aminopyridin-3-yl)-5-phenyl-3H-imidazo[4,5-b]pyridin-3-yl)benzyl)piperidin-4-yl)oxy)-6-hydroxybenzaldehyde], the IC50 was 0.06 to 0.6 µM.
`Nc1ncccc1-c1nc2ccc(-c3ccccc3)nc2n1-c1ccc(CN2CCCCC(NC(=O)c3ccc(C=O)c(O)c3)C2)cc1` (centres unmarked) [Example 118, N-(1-(4-(2-(2-Aminopyridin-3-yl)-5-phenyl-3H-imidazo[4,5-b]pyridin-3-yl)benzyl)azepan-3-yl)-4-formyl-3-hydroxybenzamide] was tested, and the IC50 was greater than 0.6 µM.
In the case of `Nc1ncccc1-c1nc2ccc(-c3ccccc3F)nc2n1-c1ccc(CN2CCN(C(=O)c3ccc(O)c(C=O)c3)CC2)cc1` [Example 141, 5-(4-(4-(2-(2-Aminopyridin-3-yl)-5-(2-fluorophenyl)-3H-imidazo[4,5-b]pyridin-3-yl)benzyl)piperazine-1-carbonyl)-2-hydroxybenzaldehyde], the IC50 is reported as 0.015 to 0.06 µM.
